Assay results published in PubChem BioAssay (NCI).
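Interpolation was linear, between the two tested concentrations surrounding the appropriate level; five concentrations were tested over 48 hours in 96-well plates. TGI marks complete inhibition of growth.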

tested on: RXF-631 renal; experiment: inhibition of tumour cell growth, NCI panel, 48 h

Compound	TGI [µM]
CC(C)C(=O)N1Cc2cc(Cl)cc(Cl)c2OC(=O)c2ccccc21	> 100
COc1cc2c(c(OC)c1OC)-c1ccc(SC)c(=O)cc1C(CC(=O)Oc1cccc([N+](=O)[O-])c1)C2 (stereo unspecified)	12.8
CNC(=O)NCNC(=O)NC	> 100
COc1ccc(/C(=N\NC(=O)NN)C(c2ccc(OC)cc2)C2(O)C(=O)Nc3c(Cl)cc(Cl)cc32)cc1 (stereo unspecified)	> 100
CCOC(=O)C(=O)C=P(c1ccccc1)(c1ccccc1)c1ccccc1	> 100
CCOC(=O)C1SC(=Nc2ccc(OC)c(OC)c2)N=C1C (stereo unspecified)	> 100
